These results are taken from patent US12295936B2, “Immunomodulating urea azalides” (Zoetis Services LLC, priority 2020, dated 2025).

Values after ≈ are worked out from the molar mass of the structure shown. Where only a bound is given, the exact number is not on record here.

Assay [1] deals with BRD pathogens, M. haemolytica and P. multocida. Briefly: MIC screening panel of BRD pathogens (antibacterial / non-antibacterial). The settings on record: read-out: antibacterial / non-antibacterial (MIC for the BRD pathogens).
The subject of a further assay is IL-1β. As to the kind of experiment: LPS-stimulated whole bovine blood assay, MSD cytokine detection. The assay is classed as cell-based. To be noted: overstimulation of IL-1β, LPS-stimulated bovine whole blood.
The next assay has as its system P. multocida 46572. As to the kind of experiment: In vivo mouse lung infection challenge model (murine efficacy). On the set-up: species or system CD-1 female mice. The settings on record: 20 mg/kg subcutaneous, P. multocida challenge; harmonized against the comparative vehicle survival rate. The procedure, abridged: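 CD-1 female mice challenged intranasally with P. multocida 46572 at mid-log phase (target 5×10^2 CFU/mouse). Compounds given subcutaneously at 20 mg/kg in buffered (~pH 5.4) propylene glycol/monothioglycerol/water. Mortality observed Days 1–10, analysed by generalized mixed model; survival harmonized against vehicle survival rate.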

The test system of a further assay is IL-6. As to the kind of experiment: LPS-stimulated whole bovine blood assay, MSD cytokine detection. The assay is classed as cell-based. To be noted: Bos taurus, LPS-stimulated bovine whole blood; read-out: IL-6 (IC50 μM). The text has this: In order to correlate RNA sequencing data to cytokine changes the whole blood assay was utilized. […] The enhancement result represents an overall stimulation of cytokine levels due to cellular stress or potential toxicity with increasing concentrations of the compound, representing a typical bell shape response curve for immunomodulatory activity.

For another assay, the system named is TNF-α. The description is as above. The format is cell-based. To be noted: Bos taurus, LPS-stimulated bovine whole blood; read-out: TNF-α (IC50 μM).
Assay [2] has as its system P. multocida. As to the kind of experiment: Murine P. multocida intranasal challenge study with lung tissue RNA sequence analysis. The format is in vivo, mice. The settings on record: subcutaneous 18 hours after challenge (5×10^3 CFU/mouse): tulathromycin 16 mg/kg, M9 32 mg/kg, ceftiofur 9 mg/kg; placebo 0%. How it is done: In one murine P. multocida intranasal challenge study, mice were administered tulathromycin (16 mg/kg; T02), M9 (32 mg/kg; T03), or ceftiofur (9 mg/kg; T04) by subcutaneous injection 18 hours after bacterial challenge (5×10^3 CFU/mouse) for lung tissue RNA sequence analysis. Survival at Day 7 was about 80%, 50%, and 90% for T02, T03, and T04, respectively, compared to placebo at 0%. Differential gene expression from total lung tissue RNA sequence analysis indicated at least 226 unique genes were up or down regulated (with significance) for T03. Output from ingenuity pathway analysis of these unique genes predicted major upstream regulators of the involved pathways. Data was analyzed based on the number of genes being modulated in the same direction that were associated with a given upstream regulator. An activation z-score of 2 or greater is considered significant and the direction change is indicated by +(activated) or − (inhibited). The top 5 pathways included: IL-9 signaling, glucocorticoid receptor signaling, prolactin signaling, JAK STAT signaling, and IL-17 signaling. The top 6 upstream regulators (activation z-score) included: lipopolysaccharide (−6.725), TNF (−4.669), IFNG (−5.759), IL-1β (−5.947), STAT1 (−2.787), and poly rl:rC-RNA (−5.289). Even though this study was run in the murine model, the top upstream regulators identified as being modulated by M9 include an almost ubiquitous overlap with the pathways identified in the natural disease study as being key mediators in BRD, and therefore is modulating highly relevant pathways in BRD pathobiology.

A further assay relates to H. somni. Briefly: In-vitro MIC model (CLSI broth micro-dilution).
The test system of assay [3] is P. multocida. Briefly: In-vitro MIC model (CLSI broth micro-dilution). In general terms: Broth dilution looks for growth in wells or tubes with falling amounts of substance.
The test system of a further assay is M. haemolytica. Briefly: In-vitro MIC model (CLSI broth micro-dilution).
Where [4] appears, read: P. multocida (33) lung isolates at necropsy, natural BRD study.
Where [5] appears, read: M. haemolytica (116) lung isolates at necropsy, natural BRD study.
The mark [6] stands for this setting: H. somni (25) lung isolates at necropsy, natural BRD study.

In the case of `CCCNC[C@]1(O)[C@H](C)O[C@@H](O[C@H]2[C@H](C)[C@@H](O[C@@H]3O[C@H](C)C[C@H](N(C)C(=O)N(C)c4ccc(C(F)(F)F)cc4)[C@H]3O)[C@](C)(O)C[C@@H](C)CN[C@H](C)[C@@H](O)[C@](C)(O)[C@@H](CC)OC(=O)[C@@H]2C)C[C@@]1(C)OC` [Example H-13, 1-((2S,3R,4S,6R)-2-(((2R,3S,4R,5R,8R,10R,11R,12S,13S,14R)-2-ethyl-3,4,10-trihydroxy-13-(((2R,4R,5S,6S)-5-hydroxy-4-methoxy-4,6-dimethyl-5-((propylamino)methyl)tetrahydro-2H-pyran-2-yl)oxy)-3,5,8,10,12,14-hexamethyl-15-oxo-1-oxa-6-azacyclopentadecan-11-yl)oxy)-3-hydroxy-6-methyltetrahydro-2H-pyran-4-yl)-1,3-dimethyl-3-(4-(trifluoromethyl)phenyl)urea], the MIC in [1] was > 64 µg/mL. Also, the “IL-1β OS of LPS” value in the assay on IL-1β amounted to 6 µM. Also, in the assay with P. multocida 46572, the “Mouse Murine Percent Survival” value is given as 59%. Also, the IC50 came out at 9 µM with IL-6 and 12 µM in the assay with TNF-α.

Turning to `CCCNC[C@]1(O)[C@H](C)O[C@@H](O[C@H]2[C@H](C)[C@@H](O[C@@H]3O[C@H](C)C[C@H](N(C)C(=O)N(c4ccccc4)c4ccccc4)[C@H]3O)[C@](C)(O)C[C@@H](C)CN[C@H](C)[C@@H](O)[C@](C)(O)[C@@H](CC)OC(=O)[C@@H]2C)C[C@@]1(C)OC` [Example H-39, 1-((2S,3R,4S,6R)-2-(((2R,3S,4R,5R,8R,10R,11R,12S,13S,14R)-2-ethyl-3,4,10-trihydroxy-13-(((2R,4R,5S,6S)-5-hydroxy-4-methoxy-4,6-dimethyl-5-((propylamino)methyl)tetrahydro-2H-pyran-2-yl)oxy)-3,5,8,10,12,14-hexamethyl-15-oxo-1-oxa-6-azacyclopentadecan-11-yl)oxy)-3-hydroxy-6-methyltetrahydro-2H-pyran-4-yl)-1-methyl-3,3-diphenylurea], the MIC in [1] is > 64 µg/mL. For the same molecule, the “IL-1β OS of LPS” value in the assay with IL-1β was found to be 6 µM. Further, the “Mouse Murine Percent Survival” value with P. multocida 46572 is on record as 44%. Moreover, the 50% inhibitory concentration (IC50) with IL-6 worked out at 19 µM; in the assay with TNF-α, 21 µM.

Turning to `CCCNC[C@]1(O)[C@H](C)O[C@@H](O[C@H]2[C@H](C)[C@@H](O[C@@H]3O[C@H](C)C[C@H](N(Cc4ccc(OC)cc4)C(=O)N(C)c4ccccc4)[C@H]3O)[C@](C)(O)C[C@@H](C)CN[C@H](C)[C@@H](O)[C@](C)(O)[C@@H](CC)OC(=O)[C@@H]2C)C[C@@]1(C)OC` [Example H-60, 1-((2S,3R,4S,6R)-2-(((2R,3S,4R,5R,8R,10R,11R,12S,13S,14R)-2-ethyl-3,4,10-trihydroxy-13-(((2R,4R,5S,6S)-5-hydroxy-4-methoxy-4,6-dimethyl-5-((propylamino)methyl)tetrahydro-2H-pyran-2-yl)oxy)-3,5,8,10,12,14-hexamethyl-15-oxo-1-oxa-6-azacyclopentadecan-11-yl)oxy)-3-hydroxy-6-methyltetrahydro-2H-pyran-4-yl)-1-(4-methoxybenzyl)-3-methyl-3-phenylurea], the MIC in assay [1] is > 64 µg/mL. Besides, in the assay with IL-1β, the “IL-1β OS of LPS” value turned out to be 3 µM. Besides, the “Mouse Murine Percent Survival” value in the assay with P. multocida 46572 is 72%. Moreover, the IC50 in the assay with IL-6 was found to be 7 µM; in the assay with TNF-α it was 5 µM.

Take `CCCNC[C@]1(O)[C@H](C)O[C@@H](O[C@H]2[C@H](C)[C@@H](O[C@@H]3O[C@H](C)C[C@H](N(C)C(=O)N(C)c4ccc(C(F)(F)F)cc4)[C@H]3O)[C@](C)(O)C[C@@H](C)CN(C)[C@H](C)[C@@H](O)[C@](C)(O)[C@@H](CC)OC(=O)[C@@H]2C)C[C@@]1(C)OC` [Example H-100, 1-((2S,3R,4S,6R)-2-(((2R,3S,4R,5R,8R,10R,11R,12S,13S,14R)-2-ethyl-3,4,10-trihydroxy-13-(((2R,4R,5S,6S)-5-hydroxy-4-methoxy-4,6-dimethyl-5-((propylamino)methyl)tetrahydro-2H-pyran-2-yl)oxy)-3,5,6,8,10,12,14-heptamethyl-15-oxo-1-oxa-6-azacyclopentadecan-11-yl)oxy)-3-hydroxy-6-methyltetrahydro-2H-pyran-4-yl)-1,3-dimethyl-3-(4-(trifluoromethyl)phenyl)urea]: the MIC in assay [1] is > 64 µg/mL. Moreover, the “IL-1β OS of LPS” value in the assay on IL-1β is 16 µM. The “Mouse Murine Percent Survival” value with P. multocida 46572 is on record as 19%. In addition, the IC50 was found to be 10 µM in the assay on IL-6 and 6 µM in the assay on TNF-α.

Take `CC[C@H]1OC(=O)[C@H](C)[C@@H](O[C@H]2C[C@@](C)(OC)[C@](O)(CN3CC(N4CCOCC4)C3)[C@H](C)O2)[C@H](C)[C@@H](O[C@@H]2O[C@H](C)C[C@H](N(C)C(=O)N(C)c3ccccc3)[C@H]2O)[C@](C)(O)C[C@@H](C)CN[C@H](C)[C@@H](O)[C@]1(C)O` [Example J-4, 1-((2S,3R,4S,6R)-2-(((2R,3S,4R,5R,8R,10R,11R,12S,13S,14R)-2-ethyl-3,4,10-trihydroxy-13-(((2R,4R,5S,6S)-5-hydroxy-4-methoxy-4,6-dimethyl-5-((3-morpholinoazetidin-1-yl)methyl)tetrahydro-2H-pyran-2-yl)oxy)-3,5,8,10,12,14-hexamethyl-15-oxo-1-oxa-6-azacyclopentadecan-11-yl)oxy)-3-hydroxy-6-methyltetrahydro-2H-pyran-4-yl)-1,3-dimethyl-3-phenylurea]: the MIC in assay [1] was > 64 µg/mL. In addition, the “IL-1β OS of LPS” value in the assay with IL-1β turned out to be 1 µM. Besides, the “Mouse Murine Percent Survival” value in the assay on P. multocida 46572 is 5%. For the same molecule, the half-inhibitory concentration (IC50) turned out to be 3 µM with IL-6 and 7 µM in the assay on TNF-α.

For `CO/N=C(\C(=O)N[C@@H]1C(=O)N2C(C(=O)O)=C(CSC(=O)c3ccco3)CS[C@H]12)c1csc(N)n1` [ceftiofur], the “Survival at Day 7” value in the assay with P. multocida [2] is ~90%.

`CCN1CCN(c2cc3c(cc2F)c(=O)c(C(=O)O)cn3C2CC2)CC1` [enrofloxacin] registered an MIC with H. somni (Histophilus somni) of 0.06 to 1 µg/mL (≈ 0.167 to 2.78 µM).

With `CS(=O)(=O)c1ccc([C@@H](O)[C@@H](CF)NC(=O)C(Cl)Cl)cc1` [florfenicol], the MIC in the assay on H. somni (Histophilus somni) lay within 0.12 to 2 µg/mL (≈ 0.335 to 5.58 µM).

With `CCCN1C[C@H](C)[C@@H](O)[C@](C)(O)[C@@H](CC)OC(=O)[C@H](C)[C@@H](O[C@H]2C[C@@](C)(OC)[C@@H](O)[C@H](C)O2)[C@H](C)[C@@H](O[C@@H]2O[C@H](C)C[C@H](N(C)C)[C@H]2O)[C@](C)(O)C[C@H]1C` [gamithromycin (Zactran)], in the assay with P. multocida [3] (setting [4]), the MIC50 was determined as 1 µg/mL (≈ 1.29 µM) and the MIC90 was >64 µg/mL. Besides, in the assay with M. haemolytica (setting [5]), the MIC50 was found to be 1 µg/mL (≈ 1.29 µM) and the MIC90 is >64 µg/mL. In the assay on H. somni (setting [6]), the MIC50 stood at 0.25 µg/mL (≈ 0.322 µM), the MIC90 came out at 2 µg/mL (≈ 2.57 µM) and the “MIC Range” value lay in the range of 0.12 to 2 µg/mL.

For `CCCN1C[C@H](C)[C@@H](O)[C@](C)(O)[C@@H](CC)OC(=O)[C@H](C)[C@@H](O[C@H]2C[C@@](C)(OC)[C@@H](O)[C@H](C)O2)[C@H](C)[C@@H](O[C@@H]2O[C@H](C)C[C@H](N(C)C)[C@H]2O)[C@](C)(O)C[C@H]1C` [gamithromycin], the MIC was 1 to 2 µg/mL against P. multocida [3] (25 different strains of P. multocida), 0.5 to 1 µg/mL in the assay on M. haemolytica (25 different strains of M. haemolytica) and 0.25 to 8 µg/mL against H. somni (H. somni (31 strains)).

Usually IC50 stands for the concentration at which inhibition is half-maximal. One may read the MIC50 as an inhibitory concentration at the 50% level, which refers to growth in some studies and to a panel of isolates in others. One may read the MIC90 as an inhibitory concentration at the 90% level, which refers to growth in some studies and to a panel of isolates in others. A low value points to higher susceptibility.
